In article PMC7386434 (Organic letters, 2010):

Tests used:
Format in all cases: cell-based
[1] = tested on: human embryonic lung fibroblast (HLF) cells; experiment: Antiproliferative activity, HLF cells; conditions: read-out: GI50 HLF
[2] = tested on: colorectal carcinoma cell line HCT-116; experiment: Antiproliferative activity, HCT-116 cells; conditions: Homo sapiens, HCT-116, read-out: GI50 HCT-116
[3] = tested on: human lung cancer cell line (A549); experiment: Antiproliferative activity, A549 cells; conditions: A549, read-out: GI50 A549
[4] = tested on: human embryonic kidney cell line (HEK293); experiment: Antiproliferative activity, HEK293 cells; conditions: HEK293, read-out: GI50 HEK293

CCCCCCCC(=O)SCC/C=C/[C@@H]1CC(=O)NCc2nc(cs2)C2=N[C@@](C)(CS2)C(=O)N[C@@H](C(C)C)C(=O)O1 [compound 1, largazole] was tested, and the GI50 [1] was 980 nM, the GI50 [2] was 80 nM and the GI50 [3] was 320 nM. It also gave a GI50 [4] of 1360 nM.
